Among the data in US5489600A, “Piperidyl amides, sulfonamides and sulfoxamides as inhibitors of cholesterol biosynthesis” (priority 1994, dated 1996) are inhibition values, retold here.

The target in this experiment is T1, oxidosqualene cyclase (Rattus norvegicus, UniProt P48450).
T1 construct: Oxidosqualene cyclase is purified from rat liver microsomes; from tissue; host or cells: rat liver microsomes (lauryl maltoside solubilization, FPLC anion-exchange chromatography)
T1 sequence (P48450 1-733): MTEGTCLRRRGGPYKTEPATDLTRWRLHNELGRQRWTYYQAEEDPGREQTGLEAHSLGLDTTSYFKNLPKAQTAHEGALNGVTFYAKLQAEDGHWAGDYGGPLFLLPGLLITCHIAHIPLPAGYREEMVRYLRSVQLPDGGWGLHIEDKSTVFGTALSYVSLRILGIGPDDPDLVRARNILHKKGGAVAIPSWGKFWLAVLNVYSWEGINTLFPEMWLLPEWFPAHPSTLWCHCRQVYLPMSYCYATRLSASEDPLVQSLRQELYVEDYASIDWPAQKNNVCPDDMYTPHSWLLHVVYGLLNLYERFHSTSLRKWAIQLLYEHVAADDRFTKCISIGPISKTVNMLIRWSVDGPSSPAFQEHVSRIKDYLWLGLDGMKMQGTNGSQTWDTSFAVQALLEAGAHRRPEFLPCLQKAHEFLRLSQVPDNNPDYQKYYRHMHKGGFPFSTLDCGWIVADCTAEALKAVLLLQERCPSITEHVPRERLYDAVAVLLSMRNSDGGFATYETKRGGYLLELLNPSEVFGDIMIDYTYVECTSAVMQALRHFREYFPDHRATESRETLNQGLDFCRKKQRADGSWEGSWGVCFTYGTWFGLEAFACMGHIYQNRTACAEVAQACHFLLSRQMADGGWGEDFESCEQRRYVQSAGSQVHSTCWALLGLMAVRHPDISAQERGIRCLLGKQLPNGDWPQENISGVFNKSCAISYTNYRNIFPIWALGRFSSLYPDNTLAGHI
As to the kind of experiment: Inhibition of Purified Oxidosqualene Cyclase (I10). In kind it is biochemical. The note with it: 10 μM test compound; oxidosqualene cyclase purified from rat liver microsomes; [3H]squalene monoepoxide 10 μM; pH 7.4. As to the method:
Inhibition of Purified Oxidosqualene Cycloase (I10)
Oxidosqualene cyclase is purified from rat liver microsomes by the sequential methods of: 1) solubilization with the detergent lauryl maltoside and 2) FPLC anion-exchange chromatography. Compounds are tested to determine their ability to inhibit the conversion of squalene monoepoxide to lanosterol catalyzed by the purified oxidosqualene cyclase. The reaction mixture (final volume, 200 μL), contains potassium phosphate buffer (50 mM, pH 7.4), Na2 EDTA (500 μM), Tween (80 (0.1%), [3H]squalene monoepoxide (10 μM of the racemic mixture, 50 Ci/mol), test compound (10 μM) and purified oxidosqualene cyclase (50 μg). The reagents, prior to mixing are equilibrated at 37° C. for 10 minutes. The reaction is initiated by adding enzyme. The reaction is terminated by the addition of 5 mL of CHCl3 /MeOH (2:1, v/v), 0.8 mL of water and 10 μg each of squalene monoepoxide, squalene diepoxide, lanosterol and cholesterol. The organic layer is isolated and evaporated to dryness under nitrogen. The residue is dissolved in 200 μL of hexane/ethanol (99:1) and the sample is subjected to HPLC separation using a C18 reverse phase column eluted isocratically with 3.6% water in methanol. Radioactivity is quantitated using an in-line scintillation counter. Oxidosqualene cyclase activity is expressed as the percent inhibition of oxidosqualene cyclase activity at 10 μM test compound (I10 values).
Table 1 provides a summary of the testing data for the inhibition of oxidosqualene cyclase by compounds of formula (I) and formula (II).
The compound `CC(C)CCSCCCCC(=O)N1CCC(C(C)CO)CC1` (centres unmarked) [100,759, 1-(1-Oxopentyl-5-isopentylsulfide)-4-[(2-hydroxy-1-methyl)ethyl]piperidine] returned an inhibition at 10 µM of 76%.
In the case of `CCCCCCCCCCCCS(=O)(=O)N1CCC(C(C)CO)CC1` (centres unmarked) [102,055, 1-(1-Sulfonododecyl)-4[(2-hydroxy-1-methyl)ethyl]piperidine] it was 29%.
The figure for `CCCCCCCCCCCC[S+]([O-])N1CCC(C(C)CO)CC1` (centres unmarked) [101,915, 1-(1-Sulfoxododecyl)-4-[(2-hydroxy-1-methyl)ethyl]piperidine] is 46%.
In turn, `CC(C)CCSCCCCC(=O)N1CCCCC1` [101,140, 1-(1-Oxopentyl-5-isopentylsulfide)piperidine] had an inhibition at 10 µM of 38%.
In the case of `CC(CO)C1CCN(C(=O)CCCCSc2ccccc2)CC1` (centres unmarked) [101,550, 1-(1-Oxopentyl-5-phenylsulfide)-4-[(2-hydroxy-1-methyl)ethyl]piperidine] it was 82%.
